Data reported in ChEMBL document CHEMBL3734697, “Fragment-Based Drug Design of Novel Pyranopyridones as Cell Active and Orally Bioavailable Tankyrase Inhibitors” (ACS Med Chem Lett, 2015).
Values after ≈ are worked out from the molar mass of the structure shown. Blank lines part the entries; values can stand above or below the compound they belong to.

Assays:
[1] = Kinetic solubility of compound by LYSA; type: physicochemical; details: read-out: Kinetic_solubility
[2] = Clearance in Wistar/Han rat at 0.5 mg/kg, iv administered as single bolus dose; type: ADME, organism-based; details: in vivo
[3] = Tmax in C57BL/6J mouse at 5 mg/kg, po by LC/MS/MS analysis; type: ADME, organism-based; details: in vivo
[4] = Cmax in C57BL/6J mouse at 5 mg/kg, po by LC/MS/MS analysis; type: ADME, organism-based; set-up: dose 5 mg/kg, route oral; details: in vivo
[5] = Oral bioavailability in C57BL/6J mouse at 5 mg/kg by LC/MS/MS analysis; type: ADME, organism-based; details: in vivo
[6] = AUC (0 to last) in C57BL/6J mouse at 50 mg/kg, po by LC/MS/MS analysis; type: ADME, organism-based; set-up: dose 50 mg/kg, time 0 - last, route oral; details: in vivo
[7] = AUC (0 to last) in C57BL/6J mouse at 1 mg/kg, iv by LC/MS/MS analysis; type: ADME, organism-based; set-up: dose 1 mg/kg, route intravenous, time 0 - last; details: in vivo
[8] = Clearance in Wistar/Han rat at 1 mg/kg, iv administered as single bolus dose; type: ADME, organism-based; details: in vivo
[9] = Solubility of compound in fed-state simulated intestinal fluid; type: ADME
[10] = Oral bioavailability in C57BL/6J mouse at 50 mg/kg by LC/MS/MS analysis; type: ADME, organism-based; details: in vivo
[11] = Clearance in C57BL/6J mouse at 1 mg/kg, iv by LC/MS/MS analysis; type: ADME, organism-based; details: in vivo
[12] = Cmax in C57BL/6J mouse at 50 mg/kg, po by LC/MS/MS analysis; type: ADME, organism-based; set-up: dose 50 mg/kg, route oral; details: in vivo
[13] = Volume of distribution at steady state in C57BL/6J mouse at 1 mg/kg, iv by LC/MS/MS analysis; type: ADME, organism-based; details: in vivo, read-out: Vdss
[14] = AUC (0 to last) in C57BL/6J mouse at 5 mg/kg, po by LC/MS/MS analysis; type: ADME, organism-based; set-up: dose 5 mg/kg, time 0 - last, route oral; details: in vivo
[15] = Tmax in C57BL/6J mouse at 50 mg/kg, po by LC/MS/MS analysis; type: ADME, organism-based; details: in vivo
[16] = Solubility of compound in fasted-state simulated intestinal fluid; type: ADME

Compound: CC(C)(CO)C1Cc2[nH]c(=O)c3ccccc3c2CO1 (racemic)
- solubility kinetic [1]: 66 µg/mL (≈ 241 µM)

Compound: CC(C)(C)C1Cc2[nH]c(=O)c3ccccc3c2CO1 (racemic)
- solubility kinetic [1]: < 1 µg/mL
- clearance [2]: 2 mL/min/kg

Compound: Cc1cccc2c(=O)[nH]c3c(c12)COC(C(C)(C)CO)C3 (racemic)
- Tmax [3]: 15 min
- Cmax [4]: 1600 ng/mL
- bioavailability [5]: 49%
- AUC(0-t) [6]: 27000 ng·h/mL
- AUC(0-t) [7]: 600 ng·h/mL
- clearance [8]: 25 mL/min/kg
- solubility [9]: 143 µg/mL (≈ 498 µM)
- solubility kinetic [1]: 4 µg/mL (≈ 13.9 µM)
- bioavailability [10]: 92%
- clearance [11]: 28 mL/min/kg
- Cmax [12]: 14000 ng/mL
- Vd [13]: 1.5 L/kg
- AUC(0-t) [14]: 1400 ng·h/mL
- Tmax [15]: 15 min
- solubility [16]: 50 µg/mL (≈ 174 µM)

Compound: CC(C)C1Cc2[nH]c(=O)c3ccccc3c2CO1 (racemic)
- solubility kinetic [1]: 5 µg/mL (≈ 20.6 µM)
- clearance [2]: 37 mL/min/kg

Next, values leading:

- solubility kinetic [1]: < 1 µg/mL
- clearance [2]: 20 mL/min/kg
Compound: Cc1cccc2c(=O)[nH]c3c(c12)COC(C(C)C)C3 (racemic)

- solubility kinetic [1]: 13 µg/mL (≈ 35.3 µM)
Compound: O=C(C1COC1)N1CCC(C2Cc3[nH]c(=O)c4ccccc4c3CO2)CC1 (racemic)

- solubility kinetic [1]: 13 µg/mL (≈ 53.2 µM)
- clearance [2]: 10 mL/min/kg
Compound: CC(C)C1Cc2[nH]c(=O)c3cccnc3c2CO1 (racemic)

- solubility kinetic [1]: 28 µg/mL (≈ 80.4 µM)
- clearance [2]: 47 mL/min/kg
Compound: CS(=O)(=O)N1CCC(C2Cc3[nH]c(=O)c4ccccc4c3CO2)C1 (racemic)
